Measurements published in the supplement of paper PMC10702517.
± gives the standard deviation.

Experiments:
[1] = chemical recovery from spiked human plasma; higher = better extraction; details: pooled human plasma
[2] = chemical recovery by SPE of plasma after PDMS sampling; higher = better extraction; details: pooled human plasma, extraction method: HLB SPE of plasma after PES
[3] = extraction method: SPE only (HLB 96-well)
[4] = extraction method: PES+SPE (3 d PDMS equilibration then HLB SPE)
[5] = extraction method: SPE only (HLB 96-well), PES comparison experiment
[6] = extraction method: solvent precipitation (ACN + hexane)
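For chemical recovery by SPE of plasma after PDMS sampling in this document: over 400 spiked chemicals quantified by LC-HRMS or GC-HRMS via internal standard calibration, recovery relative to spike mix added to unspiked plasma extract to correct matrix effects.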

| SMILES | chemical recovery [1, 3] [%] | chemical recovery by SPE of plasma ([2]; equilibration time (d): 1) [%] | chemical recovery by SPE of plasma ([2]; equilibration time (d): 3) [%] | chemical recovery by SPE of plasma ([2]; equilibration time (d): 6) [%] | chemical recovery [1, 4] [%] | chemical recovery [1, 5] [%] | chemical recovery [1, 6] [%] |
| --- | --- | --- | --- | --- | --- | --- | --- |
| Cc1cccc(C)c1N(Cn1cccn1)C(=O)CS(=O)(=O)O [Metazachlor ESA] | 97.9 ± 4.8 | 44.3 ± 5.8 | 50.6 ± 2.1 | 43.4 ± 3 |  |  |  |
| Cn1ccnc1S [Methimazol] | 0.483 ± 0.27 | 0.224 ± 0.23 | 0.612 ± 0.32 | 0.886 ± 0.81 | 0.467 ± 0.11 | 0.192 ± 0.098 | 44.8 ± 6.5 |
| CCc1cccc(C)c1N(C(=O)C(=O)O)C(C)C(=O)O (stereo not drawn) [Metolachlor CGA 357-704] |  |  | 54.2 ± 4.1 | 47.4 ± 3 |  | 41 ± 6 |  |
| CCc1cccc(C)c1NC(=O)CS(=O)(=O)O [Metolachlor CGA 368-208] |  | 37.9 ± 8.1 | 46.1 ± 2.7 | 43.1 ± 7.2 |  | 47.9 ± 5.2 |  |
| CCc1cccc(C)c1N(C(=O)CS(=O)(=O)O)C(C)COC (stereo not drawn) [Metolachlor ESA] | 33.2 ± 2.9 | 38.9 ± 5.3 | 42.9 ± 5.7 | 39.7 ± 6.8 | 0.65 ± 0.11 | 46.9 ± 4 | 69.1 ± 3.4 |
| COc1c(C)c2c(c(O)c1C/C=C(\C)CCC(=O)O)C(=O)OC2 [Mycophenolic acid] | 45.5 ± 3.8 | 48.6 ± 4.3 | 53 ± 2.7 | 46.3 ± 2 | 44.01 ± 0.38 | 53.5 ± 4.5 | 70.9 ± 5.3 |
| CCCCCCCCCCCC[N+](C)(C)[O-] [N,N-Dimethyldodecylamine N-oxide] | 55.1 ± 13 | 23.5 ± 3.5 | 17.7 ± 3 | 9.46 ± 8.3 |  | 43.2 ± 7.2 |  |
| CC(=O)Nc1ccc(O)c(C(=O)O)c1 [N-Acetyl mesalazine] |  | 56.2 ± 8.4 | 61.6 ± 4.1 | 55.1 ± 4.2 |  | 58.9 ± 4.9 |  |
| CCCCNS(=O)(=O)c1ccccc1 [N-Butylbenzenesulfonamide] | 48.7 ± 6.1 | 11.4 ± 0.85 | 17.5 ± 1.5 | 11.5 ± 1.4 | 45.4 ± 6.6 |  |  |
| c1ccc2sc(SNC3CCCCC3)nc2c1 [N-Cyclohexyl-2-benzothiazole-sulfenamide] |  | 42.3 ± 7.4 | 43.6 ± 3.3 | 42.3 ± 4.2 |  | 44.1 ± 3.7 |  |
| CCCCCCCCCCCCNC [N-Methyldodecylamine] |  | 0.209 ± 0.36 |  |  |  | 44.7 ± 7.9 | 62.7 ± 5.7 |
| COc1ccc2cc(C(C)C(=O)O)ccc2c1 (stereo not drawn) [Naproxen] | 63.8 ± 1.9 |  | 36.6 ± 5.5 | 36.5 ± 9.1 | 66 ± 2.3 | 73.3 ± 9.3 | 70.2 ± 4.7 |
| COc1cc(OC)nc(NC(=O)NS(=O)(=O)c2ncccc2C(=O)N(C)C)n1 [Nicosulfuron] | 44.7 ± 3.3 | 51.6 ± 5.2 | 56 ± 2.5 | 50.3 ± 3.3 |  | 49.3 ± 3.4 | 64.3 ± 2.2 |
| Oc1nc(O)c2cn[nH]c2n1 [Oxypurinol] |  |  | 1.02 ± 0.27 |  |  |  | 17 ± 2.7 |
| Clc1ccc(-c2ccc(Cl)cc2Cl)cc1 [PCB28] | 5.86 ± 1.6 | 1.11 ± 1 | 1.62 ± 0.27 | 1.51 ± 0.26 |  | 20.3 ± 4.4 |  |
| Clc1ccc(Cl)c(-c2cc(Cl)ccc2Cl)c1 [PCB52] | 3.67 ± 0.85 | 1.19 ± 0.83 | 1.25 ± 0.28 | 1.09 ± 0.3 | 48.5 ± 8.4 | 16.2 ± 3.2 |  |
